Experimental data: US20170305922A1, “CARM1 INHIBITORS AND USES THEREOF” (Epizyme, Inc., priority 2014, published 2017)

Key:
[1] = biological target: T1, Human CARM1 (PRMT4) (Homo sapiens, UniProt Q86X55); assay: CARM1 enzyme assay on peptide substrates (3H-SAM Flashplate); conditions: Biochemical assay; CARM1 0.25 nM, 3H-SAM 30 nM, peptide 250 nM; read-out: Biochem IC50
T1 construct: Flag-CARM1-His was eluted with 200 ug/ml FLAG peptide in buffer A; made in house; host or cells: HEK 293F cells infected with recombinant baculovirus (pFastBacMam)
T1 sequence (Q86X55 1-585 isoform Q86X55-1): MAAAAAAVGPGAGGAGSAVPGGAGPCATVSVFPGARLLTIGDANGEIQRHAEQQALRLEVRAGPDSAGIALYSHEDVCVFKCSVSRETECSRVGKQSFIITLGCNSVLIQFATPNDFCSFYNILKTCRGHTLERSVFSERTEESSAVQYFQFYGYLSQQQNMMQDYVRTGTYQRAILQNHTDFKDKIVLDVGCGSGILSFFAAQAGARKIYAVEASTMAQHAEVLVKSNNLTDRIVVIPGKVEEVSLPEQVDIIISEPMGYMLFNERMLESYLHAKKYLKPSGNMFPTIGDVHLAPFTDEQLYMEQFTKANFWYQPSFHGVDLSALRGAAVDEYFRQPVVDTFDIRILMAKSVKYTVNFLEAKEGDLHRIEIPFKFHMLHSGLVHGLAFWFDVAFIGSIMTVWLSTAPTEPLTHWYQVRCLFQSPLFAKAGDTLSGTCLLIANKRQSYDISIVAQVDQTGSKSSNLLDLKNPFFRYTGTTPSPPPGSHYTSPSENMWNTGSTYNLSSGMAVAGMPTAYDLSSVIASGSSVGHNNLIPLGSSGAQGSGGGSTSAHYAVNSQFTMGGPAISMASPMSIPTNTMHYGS
Description: S-adenosylmethionine (SAM), S-adenosylhomocysteine (SAH), bicine, Tween20, dimethylsulfoxide (DMSO), bovine skin gelatin (BSG), sodium butyrate and Tris(2-carboxyethyl)phosphine hydrochloride solution (TCEP) were purchased from Sigma-Aldrich at the highest level of purity possible. ^3H-SAM was purchase from American Radiolabeled Chemicals with a specific activity of 80 Ci/mmol. 384-well streptavidin Flashplates were purchased from PerkinElmer.
Peptide representative of human histone H3 residues 16-30 was synthesized with an N-terminal linker-affinity tag motif and a C-terminal amide cap by 21st Century Biochemicals. […] The sequence was Biot-Ahx-[…]-amide and contained a monomethylated arginine at position 26 (SEQ ID NO.:1).
The gene sequence encoding isoform1 containing a deletion of amino acids 539-561 was amplified subsequently and subcloned into pFastBacMam (Viva Biotech).
Recombinant baculovirus were generated according to Bac-to-Bac kit instructions (Life Technologies). Protein over-expression was accomplished by infecting exponentially growing HEK 293F cell culture at 1.3×10^6 cell/ml with virus (MOI=10) in the presence of 8 mM sodium butyrate. Infections were carried out at 37° C. for 48 hours, harvested by centrifugation, and stored at −80° C. for purification.
Column was washed with 500 mM NaCl in buffer A and Flag-CARM1-His was eluted with 200 ug/ml FLAG peptide in buffer A. Pooled fractions were dialyzed in 20 mM Tris, 150 mM NaCl, 5% glycerol and 1 mM DTT, pH 7.8.
The assays were all performed in a buffer consisting of 20 mM Bicine (pH=7.6), 1 mM TCEP, 0.005% BSG, and 0.002% Tween 20, prepared on the day of use. Compounds in 100% DMSO (1 ul) were spotted into a polypropylene 384-well V-bottom plates (Greiner) using a Platemate Plus outfitted with a 384-channel head (Thermo Scientific). DMSO (1 ul) was added to Columns 11, 12, 23, 24, rows A-H for the maximum signal control and 1 ul of SAH, a known product and inhibitor of CARM1, was added to columns 11, 12, 23, 24, rows I-P for the minimum signal control. A cocktail (40 ul) containing the CARM1 enzyme was added by Multidrop Combi (Thermo-Fisher). The compounds were allowed to incubate with CARM1 for 30 min at room temperature, then a cocktail (10 ul) containing ^3H-SAM and peptide was added to initiate the reaction (final volume=51 ul). The final concentrations of the components were as follows: CARM1 was 0.25 nM, ^3H-SAM was 30 nM, peptide was 250 nM, SAH in the minimum signal control wells was 1 mM, and the DMSO concentration was 2%. The assays were stopped by the addition of non-radiolabeled SAM (10 ul) to a final concentration of 300 uM, which dilutes the ^3H-SAM to a level where its incorporation into the peptide substrate is no longer detectable. 50 ul of the reaction in the 384-well polypropylene plate was then transferred to a 384-well Flashplate and the biotinylated peptides were allowed to bind to the streptavidin surface for at least 1 hour before being washed once with 0.1% Tween20 in a Biotek ELx405 plate washer. The plates were then read in a PerkinElmer TopCount plate reader to measure the quantity of ^3H-labeled peptide bound to the Flashplate surface, measured as disintegrations per minute (dpm) or alternatively, referred to as counts per minute (cpm).
where dpm=disintegrations per minute, cmpd=signal in assay well, and min and max are the respective minimum and maximum signal controls.
where top and bottom are the normally allowed to float, but may be fixed at 100 or 0 respectively in a 3-parameter fit. The Hill Coefficient normally allowed to float but may also be fixed at 1 in a 3-parameter fit. Y is the % inhibition and X is the compound concentration.

[2] = system: asymmetric di-methyl PABP1 in RKO cells; assay: RKO methylation assay: In Cell Western (ICW) for asymmetric di-methyl PABP1 (PABP1me2a); conditions: Homo sapiens, RKO, 48 h, Cellular-based (PABP1me2a) ICW (In Cell Western) assay
Description: RKO adherent cells were purchased from ATCC (American Type Culture Collection), Manassas, Va., USA. DMEM/Glutamax medium, penicillin-streptomycin, heat inactivated fetal bovine serum, 0.05% trypsin and D-PBS were purchased from Life Technologies, Grand Island, N.Y., USA. Odyssey blocking buffer, 800CW goat anti-rabbit IgG (H+L) antibody, and Licor Odyssey infrared scanner were purchased from Licor Biosciences, Lincoln, Nebr., USA. Asymmetric di-methyl PABP1 antibody was purchased from Cell Signaling Technology, Danvers, Mass., USA. Methanol was purchased from VWR, Franklin, Mass., USA. 10% Tween 20 was purchased from KPL, Inc., Gaithersburg, Md., USA. Paraformaldehyde (PFA) was purchased from EM Sciences. DRAQ5 was purchased from Biostatus Limited, Leicestershire, UK.
RKO adherent cells were maintained in growth medium (DMEM/Glutamax medium supplemented with 10% v/v heat inactivated fetal bovine serum and 100 units/mL penicillin-streptomycin) and cultured at 37° C. under 5% CO2.
Cell treatment, In Cell Western (ICW) for detection of asymmetric di-methyl PABP1 and DNA content: RKO cells were seeded in assay medium at a concentration of 30,000 cells per mL to a poly-D-lysine coated 384 well culture plate (BD Biosciences 356697) with 50 μL per well. Compound (100 nL) from a 96-well source plate was added directly to 384 well cell plate. Plates were incubated at 37° C., 5% CO2 for 48 hours. After two days of incubation, plates were brought to room temperature outside of the incubator for ten minutes and blotted on paper towels to remove cell media. Cells were fixed for 20 minutes at room temperature by adding 50 ul of 8% PFA followed by aspiration of supernatant with the Biotek EL406 plate washer. Cells were then permeabilized by addition of 50 μL of ice cold 100% methanol directly to each well and incubated for 30 min at room temperature. After 30 min, plates were transferred to a Biotek EL406 plate washer and washed 2 times with 100 μL per well of wash buffer (1×PBS). Next 60 μL per well of Odyssey blocking buffer (Odyssey Buffer with 0.1% Tween 20 (v/v)) were added to each plate and incubated 1 hour at room temperature. Blocking buffer was removed and 20 μL per well of primary antibody was added (asymmetric-methyl PABP1) diluted 1:400 in Odyssey buffer with 0.1% Tween 20 (v/v)) and plates were incubated overnight (16 hours) at 4° C. Plates were washed 5 times with 100 μL per well of wash buffer. Next 20 μL per well of secondary antibody was added (1:800 800CW goat anti-rabbit IgG (H+L) antibody, 1:2000 DRAQ5 in Odyssey buffer with 0.1% Tween 20 (v/v)) and incubated for 1 hour at room temperature. The plates were washed 5 times with 100 μL per well wash buffer then 2 times with 100 μL per well of water. Plates were allowed to dry at room temperature then imaged on the Licor Odyssey machine which measures integrated intensity at 700 nm and 800 nm wavelengths. Both 700 and 800 channels were scanned.
First, the ratio for each well was determined by:
Each plate included fourteen control wells of DMSO only treatment (minimum inhibition) as well as fourteen control wells for maximum inhibition treated with 20 μM of a reference compound. The average of the ratio values for each control type was calculated and used to determine the percent […] for each test well in the plate. Reference compound was serially diluted three-fold in DMSO for a total of nine test concentrations, beginning at 20 μM.
Percent inhibition was determined and IC50 curves were generated using triplicate wells per concentration of compound.

| IC50 [1] | IC50 [2] | SMILES |
| --- | --- | --- |
| 3.6 nM | 74 nM | CNC[C@@H](O)COc1ccc(Cl)c(-c2nc(-c3c(C)noc3C)c(C)c(N3Cc4c(C)nn(CC(F)(F)F)c4C3)n2)c1 [Example 13] |
| 4.83 nM | 40.9 nM | CNC[C@@H](O)COc1ccc(Cl)c(-c2nc(-c3c(C)noc3C)c(C)c(N3CC4(C3)CN([C@H](C)C(F)(F)F)C4)n2)c1 [Example 330] |
| 3.1 nM | 52 nM | CNC[C@@H](O)COc1ccc(Cl)c(-c2nc(-c3c(C)noc3C)c(C)c(N3Cc4nc(C)oc4C3)n2)c1 [Example 149] |
| 13.4 nM | 257 nM | CNC[C@@H](O)COc1ccc(Cl)c(-c2nc(CCC3CN(C(=O)OC)C3)c(C)c(-c3c(C)noc3C)n2)c1 [Example 121] |
| 6.31 nM | 32.9 nM | CNC[C@@H](O)COc1ccc(Cl)c(-c2nc(-c3c(C)noc3C)c(C)c(N3CC4(C3)CN([C@@H](C)C(F)(F)F)C4)n2)c1 [Example 331] |
| 6.2 nM | 84 nM | CNC[C@@H](O)COc1ccc(Cl)c(-c2nc(-c3c(C)noc3C)c(C)c(N3CC4(CC(OCCOC)C4)C3)n2)c1 [Example 241] |
| 3.9 nM | 144 nM | CNC[C@@H](O)COc1ccc(Cl)c(-c2nc(-c3c(C)noc3C)c(C)c(N3CC4(CC=C(F)CC4)C3)n2)c1 [Example 68] |
| 5.03 nM | 48.8 nM | CNC[C@@H](O)COc1ccc(Cl)c(-c2nc(-c3c(C)c(Cl)nn3C)c(C)c(N3CC4(CC(OC(C)C)C4)C3)n2)c1 [Example 274] |
| 2.1 nM | 34 nM | CNC[C@@H](O)COc1ccc(Cl)c(-c2nc(-c3c(C)noc3C)c(C)c(N3Cc4cnc(OC)cc4C3)n2)c1 [Example 169] |
| 3.7 nM | 293 nM | CCn1ncc(Cl)c1-c1nc(-c2cc(OC[C@H](O)CNC)ccc2Cl)nc(N2Cc3cccnc3C2)c1C [Example 77] |
| 7.4 nM | 125 nM | CNC[C@@H](O)COc1ccc(Cl)c(-c2nc(-c3c(C)noc3C)c(C)c(N3CC4(CCC(F)CC4)C3)n2)c1 [Example 20] |
| 5.1 nM | 346 nM | CNC[C@@H](O)COc1ccc(Cl)c(-c2nc(-c3c(C)noc3C)c(C)c(N3CC(F)(C(=O)N(C)C)C3)n2)c1 [Example 185] |
| 5.4 nM | 330 nM | CNC[C@@H](O)COc1ccc(Cl)c(-c2nc(-c3c(C)noc3C)c(C)c(N3CC4(C3)CC(O)(C(F)(F)F)C4)n2)c1 [Example 213] |
| 5.75 nM | 54.2 nM | CNC[C@@H](O)COc1ccc(Cl)c(-c2nc(-c3c(C)noc3C)c(C)c(N3CC4(CC(N5CC(F)(F)C5)C4)C3)n2)c1 [Example 279] |
| 16.3 nM | 99 nM | CNC[C@@H](O)COc1ccc(Cl)c(-c2nc(-c3c(C)noc3C)c(C)c(N3CC4(CCC(OCCOC)CC4)C3)n2)c1 [Example 128] |
| 1.9 nM | 140 nM | CNC[C@@H](O)COc1ccc(F)c(-c2nc(-c3c(C)noc3C)c(C)c(N3Cc4cn(C5CC5)nc4C3)n2)c1 [Example 15] |
| 9.7 nM | 207 nM | CNC[C@@H](O)COc1ccc(Cl)c(-c2nc(-c3c(Cl)cnn3C)c(C)c(N3CC4(CCN(C(=O)OC)CC4)C3)n2)c1 [Example 74] |
| 4.8 nM | 295 nM | CNC[C@@H](O)COc1ccc(Cl)c(-c2nc(-c3c(C)noc3C)c(C)c(N3CCN(CC(F)(F)F)CC3)n2)c1 [Example 201] |
| 28.2 nM | > 2000 nM | CNC[C@@H](O)COc1cccc(-c2nc(-c3c(C#N)cnn3C)c(C)c(N3Cc4cccnc4C3)n2)c1 [Example 347] |
| 1.9 nM | 38 nM | CNC[C@@H](O)COc1ccc(Cl)c(-c2nc(-c3c(C)noc3C)c(C)c(N3Cc4ccc(OC)nc4C3)n2)c1 [Example 170] |
| 3.5 nM | 31 nM | CNC[C@@H](O)COc1ccc(Cl)c(-c2nc(-c3c(C)c(Cl)nn3C)c(C)c(N3Cc4cnc(OCC(F)F)nc4C3)n2)c1 [Example 156] |
| 3.3 nM | 233 nM | CC[C@@H]1CN(c2nc(-c3cc(OC[C@H](O)CNC)ccc3Cl)nc(-c3c(C)noc3C)c2C)CCN1S(C)(=O)=O [Example 202] |
